Measurements: patent US20080269313A1, “Prolyl Oligopeptidase Inhibitors Ameliorating Recovery From Brain Trauma” (ORION CORPORATION, priority 2003, published 2008)

What was measured:
[1] = tested on: experimental models of senile dementia; settings: Toide et al. 1997; cited from earlier work
[2] = tested on: male rats with the focal forebrain ischemia; assay: limb-placing test after focal forebrain ischemia (middle cerebral artery occlusion 90 min); type: in vivo, rat; settings: for difference in limb-placing test between JTP-4819 and control groups: ischemic rats vs vehicle control
Description: The effects of JTP-4819 on the recovery in the use of limbs assessed by the limb placing task in male rats with the focal forebrain ischemia.
The experiment was carried out on male Spraque-Dawley rats (about 200 g), bred in B&K, Sweden. The rats were allowed to acclimatized for one week before the start of teaching of behavioural testing and subsequent operation (Table 1). During acclimatization period, the rats were housed in solid bottom Macrolon type III cages with stainless steel mesh lids (at maximum five rats in each cage). The rats had free access to standard certified pelleted food (RM1 Maintenance Expanded SQC; Special Diet Services, Essex, UK) and water. After operation, the rats were housed singly in a Macrolon cage. Some food pellets were put into a cage in order to enable to their feeding. On the second post-operative day and thereafter, the rats were housed (maximum 10 rats in one cage) in the enriched environment (Enriched rat cage system, 03-RS-R, Scanbur A/S, Lellinge, Denmark) where the floor area of one cage was 4250 cm^2. […] Tap water and pelleted food were freely available.
Anesthesia was initiated with 4-5% halothane (30% oxygen, 65% nitrous oxide) and maintained throughout the operation with 0.5-1.5% halothane delivered via a nose cone. Body temperature was maintained at 37.0±0.5° C. using a thermoregulatory heating unit with homeothermic blanket (HB 101/2 RS, Letica Scientific Instruments). Heparin (40 IU, i.v.) was given just before the operation to prevent possible complications caused by blood coagulation. The right common carotid artery was exposed through a midline ventral cervical incision, and carefully separated from the adjacent sympathetic nerves under a stereomicroscope. The common carotid artery and internal carotid artery were then clamped with microvascular clips. The external carotid artery was ligated distally with a nylon suture and the artery was cut for induction of suture. A heparinized nylon suture (Ø0.28 mm, rounded tip) was introduced into the stump of the external carotid artery, the internal carotid artery clip was removed, and the suture was advanced into the internal carotid artery until it passed beyond the origin of the middle cerebral artery. After occlusion for 90 min, the suture was removed to allow reperfusion in the middle cerebral artery territory. The stump of the external carotid artery was electrocoagulated and the common carotid artery clip was removed. The cervical incision was closed with silk sutures after the application of 2% lidocain gel (Xylocaln® 2%, Astra Finland). In sham-operated rats, the right common carotid artery was exposed and the external carotid artery was electrocoagulated without introducing the filament into the internal carotid artery. Animals were given 0.9% NaCl (i.p.) during the first-post-operative days (days 0 and 1). They were housed singly in a Macrolon cage.
JTP-4819 was dissolved in sterile saline. The drug was injected 1 ml/kg intraperitoneally (i.p.). […] On the testing day 2, the drug was injected after the rats were tested in a limb placing test and assigned to groups. On days 3-14, the rats were treated even if they were not tested in a limb placing test Table 1). In those days (6, 8, 10, 12, 13), the rats were injected in the afternoon, about 24 hours after the preceding injection. […]
On the second day after operation, behavioral deficits of rats were assessed by using a limb-placing test (De Ryck et al., 1989). […]

O=C(CO)[C@@H]1CCCN1C(=O)[C@@H]1CCCN1C(=O)NCc1ccccc1 [JTP-4819]
cognition effects [1]: cognition improving effects | difference in limb-placing test between JTP-4819 and control groups ([2]; 1 μmol/kg i.p. daily, from day 5 to day 17 after ischemia): significant difference (p<0.05) | difference in limb-placing test between JTP-4819 and control groups ([2]; 9 μmol/kg i.p. daily, on day 3 and 9): significant difference (p<0.05) | recovery in limb-placing score as compared to vehicle treated rats (FIG. 1) ([2]; 0.9 or 9.0 μmol/kg intraperitoneally, especially the lower dose, day 5-17): augmented recovery | recovery in the use of limbs ([2]; daily systemic administration started after unilateral focal forebrain ischemia, rats): enhanced the recovery in the use of limbs | limb-placing test effect after the discontinuation of drug administration ([2]; lower dose of JTP-4819 (1 μmol/kg i.p.), after treatment days 2-14): amelioration effect also was seen
